Test results published in PMC4549706, “Rational Design of Highly Potent and Slow-Binding Cytochrome bc1 Inhibitor as Fungicide by Computational Substitution Optimization” (Scientific Reports, 2015).
Read-outs that look alike come from different tables or passages of the source.

Key:
[1] = biological target: T1, porcine succinate-cytochrome c reductase (SCR, the mixture of complex II and bc1) (Sus scrofa, UniProt P24964); settings: previous data, cited from earlier work
T1 construct: T h e S C R f r o m p o r c i n e h e a r t; from tissue; host or cells: porcine heart

[2] = tested on: Sphaerotheca fuliginea (Schlecht.) Poll.; experiment: In vivo fungus growth inhibitory rate at 200 mg/L, powdery mildew
Excerpt: Based on the above in vitro study, compounds with nanomolar and subnanomolar Ki values were selected from the total 21 newly synthezised compounds for further studies. Pesticide likeness, defined as a complex balance of various physicochemical properties and structure features, can evaluate whether a molecule is similar to the known pesticides. After the filtration of pesticide likeness, seven compounds were kept to adhere to our previously defined rules for pesticide-likeness including molecular weight (MW) ≤ 435 Da, ClogP ≤ 6, number of H-bond acceptors (HBA) ≤ 6, number of H-bond donors (HBD) ≤ 2, number of rotatable bonds (ROB) ≤ 9, and number of aromatic bonds (ARB) ≤ 17 (Table 1)[24]. […] Therefore, compound 18 was recognized as lead compound for subsequent studies.
[a] Compounds are named as “series number-site number plus substitution group number” a: -F, b: -Cl, c:
-Br, d: -NO2, e: -CH3, f: -CF3, g: -OCH3, h: -OH, i: -NH2, j: -COOH.
[b] Substitution number and group.
[c] CH is “series 1” and N is “series 2”. […]
Table S2 Fungus growth inhibitory rate of target compounds (200 mg/L).
Comp. No. R X Sphaerotheca fuliginea Pseudoperonospora cubensis

[3] = tested on: S. fuliginea; experiment: Field trial, summer squash naturally infected, powdery mildew; assay type: in vivo, Sphaerotheca fuliginea
Protocol: To further study the potential of compound 18 against powdery mildew and downy mildew, field experiments were conducted during the growing season of summer squash and cucumber. The summer squash plants at a fruiting stage naturally infected by S. fuliginea were used. […] Almost no lesions were observed on the leaves of summer squash. […] Lesions on the leaves of control plants, however, expanded quickly, and intense fungal hyphae could be observed. The curative effect is approximately 64.85% for the AZ-treated (93.75 g.ai/ha) summer squash. In addition, field trials for the treatment of downy mildew of cucumber were also performed. Cucumber plants naturally infected by P. cubensis were used for the study. Fungi on the leaves of control plants expanded quickly and lesions could be observed.
In the field trials, summer squash plants which is naturally infected by S. fuliginea and cucumber plants which is naturally infected by P. cubensis were used.
The disease index and control effect of compound 18 were calculated via the following […]
Disease index (%) = ∑(Ni × i)/(N × 9) × 100 […]
Each treatment took up in four plots and was distributed randomly in each […]eld. The relative control effects were assessed after the 7th day of foliar application 18. […]

T1 sequence (P24964 whole entry, one chain of several): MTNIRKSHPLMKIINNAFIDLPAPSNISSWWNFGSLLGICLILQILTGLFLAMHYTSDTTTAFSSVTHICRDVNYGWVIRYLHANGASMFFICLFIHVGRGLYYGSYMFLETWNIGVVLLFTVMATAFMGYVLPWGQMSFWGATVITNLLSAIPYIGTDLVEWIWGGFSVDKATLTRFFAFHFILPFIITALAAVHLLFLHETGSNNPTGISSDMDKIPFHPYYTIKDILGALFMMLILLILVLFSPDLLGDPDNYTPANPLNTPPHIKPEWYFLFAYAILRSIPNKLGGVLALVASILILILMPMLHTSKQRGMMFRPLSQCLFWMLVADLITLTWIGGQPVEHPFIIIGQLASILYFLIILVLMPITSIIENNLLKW

Compound	Ki ([1]; inhibition of SCR activity)	inhibition type with respect to cytochrome c [1]	Fungus growth inhibitory rate, Sphaerotheca fuliginea [2]	Fungus growth inhibitory rate, Sphaerotheca fuliginea ([2]; listed as Comp. 18)	curative effect, powdery mildew (S. fuliginea) ([3]; 37.5 g.ai/ha, 7th day)	curative effect, powdery mildew (S. fuliginea) ([3]; 75 g.ai/ha, 7th day after foliar application)
CO/C=C(/C(=O)OC)c1ccccc1Oc1cc(Oc2ccccc2C#N)ncn1 [AZ, Azoxystrobin, reference compound]	298 nM	non-competitive	–	–	–	–
COC=C(C(=O)OC)c1ccccc1CSc1nc2cc(OC)ccc2s1 [Compound 18]	–	–	completely inhibited	100%	approximately 70.92%	74.60%
